This is an account of results in patent US10611751B2, “Dopamine D1 receptor positive allosteric modulators” (Eli Lilly and Company, priority 2018, dated 2020).

Structures are written as SMILES.

In data set [1] the target is human D1 receptor (Homo sapiens (Human), UniProt P21728). As to the kind of experiment: Human D1 Receptor PAM Assay (cAMP HTRF, potentiator mode with EC20 dopamine). Particulars: for EC50: HEK293 cells expressing human D1 receptor, 12 nM dopamine (EC20), cAMP, read-out: Abs EC50; for Emax: fitted top of curve, 0% = EC20 dopamine, 100% = 5 μM dopamine, read-out: % Top (% Potentiation). Format: cell-based. An excerpt: The PAM activity of the compounds of the present invention may be measured essentially as described in Svensson et al., An Allosteric Potentiator of the Dopamine D1 Receptor Increases Locomotor Activity in Human D1 Knock-in Mices without Casusing Stereotypy or Tachyphylaxis. J. Pharmacol. Exp. Ther. (2017) 360:117-128.
Sequence of human D1 receptor (P21728 whole entry): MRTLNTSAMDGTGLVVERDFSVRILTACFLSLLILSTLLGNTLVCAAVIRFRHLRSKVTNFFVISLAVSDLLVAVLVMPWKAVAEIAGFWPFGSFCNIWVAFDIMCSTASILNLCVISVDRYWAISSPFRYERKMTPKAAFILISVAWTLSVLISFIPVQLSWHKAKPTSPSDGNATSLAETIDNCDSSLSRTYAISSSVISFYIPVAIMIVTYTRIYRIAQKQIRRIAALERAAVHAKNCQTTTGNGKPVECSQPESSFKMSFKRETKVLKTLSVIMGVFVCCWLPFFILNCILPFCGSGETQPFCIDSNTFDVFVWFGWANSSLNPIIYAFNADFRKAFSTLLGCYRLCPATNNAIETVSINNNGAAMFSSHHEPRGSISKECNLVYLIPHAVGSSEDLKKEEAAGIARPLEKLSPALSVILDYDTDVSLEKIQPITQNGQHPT
More specifically, HEK293 cells that stably express the human D1 receptor (Accession number NM_000794) are generated by gene transduction using the pBABE-bleo retroviral vector and selected with Zeocin™ (InvivoGen). At approximately 80% confluency, the cells are harvested using TrypLE™ Express (Gibco), suspended in FBS plus 8% DMSO, and stored in liquid nitrogen. On the day of the assay, cells are thawed and resuspended in STIM buffer (Hanks Balanced Salt Solution supplemented with 0.1% BSA, 20 mM HEPES, 500 μM IBMX, and 100 μM ascorbic acid).
Test compound is serially diluted (1:2) with DMSO into assay plates (ProxiPlate-384 Plus, PerkinElmer) using acoustic dispensing (Labcyte) to provide 20 concentrations for full response curves. […] Plates are incubated at room temperature for a total reaction time of 60 min.
cAMP production is quantified using HTRF® detection (Cisbio) according to the manufacturer's instructions. Generally, lysis buffer containing anti-cAMP cryptate (5 μL) and D2-conjugate (from HTRF® kit) (5 μL) is added to the wells, plates are incubated for an additional 60-90 min, and the time-resolved fluorescence is detected using an EnVision™ plate reader (PerkinElmer). Fluorescence data is converted to cAMP concentrations using a cAMP standard curve and analyzing using a 4-parameter non-linear logistic equation (Genedata Screener, version 13.0.5-standard). For potentiator mode concentration-response curves, results are expressed as percent of the window between a response at EC20 concentration of dopamine alone (normalized to 0%) and the maximum response to dopamine (defined by response to 5 μM dopamine, final concentration, normalized as 100%).
Absolute EC50 values are calculated based on the maximum and minimum responses of the control agonist (dopamine). The % Potentiation (% Top) is determined from the fitted top of the concentration response curve.
For orientation: TR-FRET usually uses a lanthanide donor and a delayed reading to cut background.

Data set [2] relates to normal rats. The data set is described as follows: In vivo tolerability in normal rats. Conditions: broad dose range. An excerpt:
Compounds of the invention, for instance Example 1, show an advantageous combination of pharmacological properties, such as potentiation of human D1 receptor signaling in response to dopamine, high oral in vivo availabilty, in vivo efficacy in locomotor activation of animals that are habituated to the environment, and a favorable toxicity profile in preclinical testing. […].

By EC50 is commonly meant the midpoint of the concentration-response curve. For `C[C@H]1c2cccc(-c3cnn(C)c3)c2C[C@H](CO)N1C(=O)Cc1c(Cl)cccc1Cl` [Example 1, 2-(2,6-dichlorophenyl)-1-((1S,3R)-3-(hydroxymethyl)-1-methyl-5-(1-methyl-1H-pyrazol-4-yl)-3,4-dihydroisoquinolin-2(1H)-yl)ethan-1-one], in data set [1], the EC50 was 16.4 ± 3.18 nM and the Emax turned out to be 91.4%. The “Tolerability / toxicity in vivo (in words)” value in data set [2] is given as “generally well tolerated”.
As to `C[C@H]1c2cccc(-c3cn[nH]c3)c2C[C@H](CO)N1C(=O)Cc1c(Cl)cccc1Cl` [Example 8, 2-(2,6-dichlorophenyl)-1-((1S,3R)-3-(hydroxymethyl)-1-methyl-5-(1H-pyrazol-4-yl)-3,4-dihydroisoquinolin-2(1H)-yl)ethan-1-one], in data set [1], the EC50 came out at 13.4 nM and the Emax came out at 75.9%.
